Where a name gives a salt, the structure may show the parent alone.

The values below come from patent US20160200698A1, “VORTIOXETINE SALT AND CRYSTAL THEREOF, THEIR PREPARATION METHOD, PHARMACEUTICAL COMPOSITIONS AND USAGE” (HANGZHOU PUSHAI PHARMACEUTICAL TECHNOLOGY CO., LTD, priority 2013, published 2016).

Format in all cases: physicochemical
Series [1] in a line: Inventors' studies of the known crystalline forms of vortioxetine hydrobromide of WO2007/144005A1. The settings on record: for Stability under high-temperature conditions: hydrobromide. An excerpt:
In studies, the inventors of the present invention found out that the multiple crystalline forms of vortioxetine hydrobromide disclosed in WO2007/144005A1 have the following disadvantages: […]

Series [2] in a line: Stability competition test (competitive slurry, XRPD analysis). The conditions noted are these: for Stability Competition Test: crystalline form after competitive slurry (XRPD): ethanol or water, equal quantity of both forms slurried 7 days; for Stability competition test: crystalline form after slurry (summary statement): slurried in water or ethanol, temperature not stated. The procedure:
Stability competition test: An equal quantity (250 mg) of the crystalline vortioxetine hemihydrobromide form of the present invention prepared in example 4 and the β Form of vortioxetine hydrobromide prepared in preparation example 2 were respectively added to 3 mL of ethanol or water to produce suspensions. No solvate was formed in ethanol or water. The suspensions were slurried for 7 days at room temperature or at 60° C., and then XRPD characterization analyses were performed.

A short description of series [3]: Hygroscopicity comparison by DVS isothermal sorption curve. The conditions noted are these: 20%-80% RH range. The procedure: Dynamic vapor sorption (DVS) data were collected using TA Instruments Q5000 TGA. The instrument control software was Thermal Advantage, and the analytical software was Universal Analysis. Usually, 1-10 mg of the sample was placed in a platinum pan and the weight change of the sample during experiments was recorded. The relative humidity was usually programmed to change from 20% to 80% and then back to 20%, and an isothermal sorption curve could be generated. Depending on specific situations, different sorption and desorption procedures might be used.
Hygroscopicity comparison: DVS isothermal sorption curves were used, and weight changes within the 20%-80% RH range were measured.

The nature of series [4]: Dissolution comparison of sustained-release tablets made by the method of example 141. The conditions noted are these: water, 37° C., paddle 50 r/min. As for the experimental part:
The crystalline form of vortioxetine hemihydrobromide of the present invention and the β Form of vortioxetine hydrobromide prepared in preparation example 2 were tabletted by the method of example 141 and then subjected to dissolution comparison. Water was used as the dissolution medium. Parameter setting of the dissolution tester: The temperature was 37° C. The rotate speed of the stirring paddle was 50 r/min Take 3 ml of the dissolution medium out at 0.5, 1, 2, 6 and 12 hours respectively. Each time after sampling, 3 mL of water was added back to the dissolution medium to supplement the volume. The concentration of the dissolution medium at each time point was determined by HPLC.

Series [5] is described as follows: Dissolution of tablets made by the method of example 105 (paddle method, water). The conditions noted are these: 900 mL water, 37° C., paddle 50 r/min. As for the experimental part: The crystalline form of vortioxetine hemihydrobromide of the present invention, the β Form of vortioxetine hydrobromide prepared in preparation example 2 and the β Form of vortioxetine hydrobromide containing 20% of the crystalline form of vortioxetine hemihydrobromide of the present invention were tabletted by the method in example 105 and then subjected to phase stability comparison. Dissolution was determined by reference to the dissolution conditions of Benorilate Tablets described in 2010 Chinese Pharmacopoeia. The paddle method was used with the paddle rotation speed at 50 r/min 900 mL of water was the dissolution medium. The temperature was 37° C. Take 3 mL of the dissolution medium for sampling at 2, 10, 20, 40 and 60 min respectively. Each time after sampling, 3 mL of water was added back to dissolution medium to supplement the volume. The concentration of the dissolution medium at each time point was measured by HPLC, and the dissolution profile was plotted.

Series [6] in a line: Storage of the crystalline form in desiccators at controlled humidity. The settings on record: desiccators at 10% RH-90% RH, room temperature, 4 months. An excerpt: It is more temperature and humidity robust and is less likely to have content uniformity and stability issues during pharmaceutical production and storage, thus reduces the risk of inefficacy and safety issue caused thereby and improves dosing accuracy.

The mark [7] stands for this setting: sampling time 0.5 hours, hemihydrobromide.
The mark [8] stands for this setting: sampling time 1 hour, hemihydrobromide.
Where [9] appears, read: sampling time 2 hours, hemihydrobromide.
Setting [10] is: sampling time 6 hours, hemihydrobromide.
The mark [11] stands for this setting: sampling time 12 hours, hemihydrobromide.
[12] abbreviates: sampling time 2 min, hemihydrobromide.
The mark [13] stands for this setting: sampling time 10 min, hemihydrobromide.
The mark [14] stands for this setting: sampling time 20 min, hemihydrobromide.
The mark [15] stands for this setting: sampling time 40 min, hemihydrobromide.
Where [16] appears, read: listed as the known β Form of vortioxetine hydrobromide, hydrobromide.
[17] abbreviates: sampling time 0.5 hours, hydrobromide.
Setting [18] is: sampling time 1 hour, hydrobromide.
[19] abbreviates: sampling time 2 hours, hydrobromide.
Where [20] appears, read: sampling time 6 hours, hydrobromide.
The mark [21] stands for this setting: sampling time 12 hours, hydrobromide.
[22] abbreviates: sampling time 2 min, hydrobromide.
Setting [23] is: sampling time 10 min, hydrobromide.
The mark [24] stands for this setting: sampling time 20 min, hydrobromide.
The mark [25] stands for this setting: sampling time 40 min, hydrobromide.

`Cc1ccc(Sc2ccccc2N2CCNCC2)c(C)c1` [γ Form of vortioxetine hydrobromide, vortioxetine hydrobromide]: the “Stability (general finding)” value in series [1] is recorded as “very unstable”. For the same compound, in series [1] (low-humidity conditions), the Hygroscopicity turned out to be 2.0%.
As for `Cc1ccc(Sc2ccccc2N2CCNCC2)c(C)c1` [vortioxetine hemihydrobromide], the “Stability Competition Test: crystalline form after competitive slurry (XRPD)” value was “present invention kept unchanged”” in series [2] (60° C., listed as the vortioxetine hemihydrobromide crystalline form of the present invention, hemihydrobromide) and “present invention kept unchanged”” in series [2] (room temperature, listed as the vortioxetine hemihydrobromide crystalline form of the present invention, hemihydrobromide). Moreover, the “Stability competition test: crystalline form after slurry (summary statement)” value in series [2] (hemihydrobromide) was “keeping its crystalline form unchanged”. Further, the “Hygroscopicity Comparison (weight change)” value in series [3] (listed as Example 4, hemihydrobromide) came to 0.28%; in series [3] (listed as the vortioxetine hemihydrobromide crystalline form of the present invention, hemihydrobromide), 0.28%. Also, the Concentration in series [4] (setting [7]) amounted to 2250 ng/mL; in series [4] (setting [8]), 3980 ng/mL; in series [4] (setting [9]), 7650 ng/mL; in series [4] (setting [10]), 12640 ng/mL; in series [4] (setting [11]), 26330 ng/mL; in series [5] (setting [12]) it was 2270 ng/mL. Moreover, the Concentration stood at 4320 ng/mL in series [5] (setting [13]); 7720 ng/mL in series [5] (setting [14]); 11330 ng/mL in series [5] (setting [15]); 27860 ng/mL in series [5] (sampling time 60 min, hemihydrobromide). For the same compound, the Cumulative dissolution stood at 8.1% in series [4] (setting [7]); 14.3% in series [4] (setting [8]); 27.4% in series [4] (setting [9]); 58.5% in series [4] (setting [10]); 94.5% in series [4] (setting [11]); 8.2% in series [5] (setting [12]). Also, the Cumulative dissolution in series [5] (setting [13]) is recorded as 15.5%; in series [5] (setting [14]) it was 27.7%; in series [5] (setting [15]), 52.4%; in series [5] (sampling time 60 min) it was 100.0%.
Regarding `Cc1ccc(Sc2ccccc2N2CCNCC2)c(C)c1` [α Form of vortioxetine hydrobromide, vortioxetine hydrobromide], in series [1] (room temperature), the “Crystalline form stability at room temperature” value was “transformed to the β Form of vortioxetine hydrobromide”.
With `Cc1ccc(Sc2ccccc2N2CCNCC2)c(C)c1` [ethyl acetate solvate of vortioxetine hydrobromide], the “Stability under high-humidity conditions” value in series [1] (high-humidity conditions) is “transformed to hydrate”. Further, in series [1], the “Stability under high-temperature conditions” value is “lost ethyl acetate”.
For `Cc1ccc(Sc2ccccc2N2CCNCC2)c(C)c1` [hydrate of vortioxetine hydrobromide, vortioxetine hydrobromide], in series [1], the “Stability under high-temperature conditions” value is recorded as “lost water”.
`Cc1ccc(Sc2ccccc2N2CCNCC2)c(C)c1` [vortioxetine hydrobromide isopropanol solvate]: the “Crystalline form after storage” value in series [6] is “remained unchanged”.
In the case of `Cc1ccc(Sc2ccccc2N2CCNCC2)c(C)c1` [the β Form of vortioxetine hydrobromide, 1-[2-(2,4-dimethylphenylsulfanyl)phenyl]piperazine hydrobromide], the “Stability Competition Test: crystalline form after competitive slurry (XRPD)” value in series [2] (60° C., listed as the known β Form of vortioxetine hydrobromide, hydrobromide) is recorded as “completely transformed into the vortioxetine hemihydrobromide crystalline form of the present invention”; in series [2] (room temperature, listed as the known β Form of vortioxetine hydrobromide, hydrobromide) it was “completely transformed into the vortioxetine hemihydrobromide crystalline form of the present invention”. Besides, the “Stability competition test: crystalline form after slurry (summary statement)” value is “failed to maintain its original crystalline form and transformed to the vortioxetine hemihydrobromide crystalline form of the present invention” in series [2] (hydrobromide); “completely transformed to the crystalline vortioxetine hemihydrobromide of the present invention” in series [2] (setting [16]); “failed to maintain its original crystalline form” in series [2] (listed as β Form of vortioxetine hydrobromide, hydrobromide). The “Hygroscopicity Comparison (weight change)” value in series [3] (setting [16]) was found to be 0.60%. For the same compound, the Concentration is 16370 ng/mL in series [4] (setting [17]); 29710 ng/mL in series [4] (setting [18]); 30810 ng/mL in series [4] (setting [19]); 31560 ng/mL in series [4] (setting [20]); 33420 ng/mL in series [4] (setting [21]); 13120 ng/mL in series [5] (setting [22]). The Concentration in series [5] (setting [23]) was found to be 28050 ng/mL; in series [5] (setting [24]) it was 30020 ng/mL; in series [5] (setting [25]) it was 31660 ng/mL; in series [5] (sampling time 60 min, hydrobromide) it was 33420 ng/mL. For the same compound, the Cumulative dissolution in series [4] (setting [17]) was 50.0%; in series [4] (setting [18]) it was 90.9%; in series [4] (setting [19]), 94.2%; in series [4] (setting [20]), 96.5%; in series [4] (setting [21]), 100.0%; in series [5] (setting [22]) it was 40.1%. The Cumulative dissolution in series [5] (setting [23]) was 85.8%; in series [5] (setting [24]), 91.8%; in series [5] (setting [25]) it was 96.8%.
